From patent US5405958A, “Photochromic spiro(indoline)naphthoxazine compounds” (Transitions Optical, Inc., priority 1992, dated 1995)

Legend:
Assay type in all cases: physicochemical
[1] = Bleach rate of imbibed polymer test squares; details: for BLEACH RATE T 1/2: 25.7±0.5° C., after removal of activating light
Experimental: (§1) These compounds were imbibed by thermal transfer into test squares of a polymeric matrix prepared from a diethylene glycol bis(allyl carbonate) composition by the following procedure: Each photochromic compound was dissolved in toluene to form a 4 weight percent solution of the compound. A piece of No. 4 Whatman filter paper was saturated with the toluene solution of the photochromic compound and allowed to air dry. The dried filter paper was placed on one side of the polymer test square, which measured 1/8 inch (0.3 centimeter)×2 inch (5.1 centimeters)×2 inch (5.1 centimeters). A piece of untreated filter paper was placed on the other side of the polymer test square and the resulting sandwich placed between two plates of flat aluminum metal plates. […] The imbibed test squares were washed with acetone after removal from the oven.
(§2) The imbibed polymer test squares were tested for photochromic response rates on an optical bench. The samples were illuminated by a 150 watt Xenon lamp fitted with a copper sulfate bath and a neutral density filter at an intensity of about one sun. A second beam of light provided by a filtered tungsten lamp arranged to pass through the sample area exposed by the UV source was used to monitor changes in transmission of the sample over different wavelength ranges in the visible region of the spectrum. The intensity of the monitoring beam after passing through the sample was measured by means of an IL-1500 radiometer equipped with a silicon detector head and matching filters.

[2] = Lambda max in imbibed polymer matrix test squares; details: for LAMBDA MAX: in polymer matrix test squares of diethylene glycol bis(allyl carbonate)
Experimental: as §1
(§3) The Δ OD/min., which represents the sensitivity of the photochromic compound's response to UV light, was measured using photopic filters on the silicon detector. The response of the filtered detector approximated the luminosity curve. The Δ OD was measured over the first five (5) seconds of UV exposure, then expressed on a per minute basis. The saturation optical density (OD) was taken under identical conditions as the Δ OD/min., except UV exposure was continued for 20 minutes. The lambda max reported in Table 2 is the wavelength in the ultraviolet range closest to the visible spectrum or in the threshold range, i.e., 390 to 410 nanometers, of the visible spectrum at which the maximum absorption and activation of the photochromic compound occurs in the polymer matrix test squares.

[3] = Photochromic response (sensitivity, saturation optical density) of imbibed polymer test squares on optical bench; details: for Δ OD @ SATURATION: UV exposure continued for 20 minutes; for Δ OD/min. SENSITIVITY: first five (5) seconds of UV exposure, expressed per minute, photopic filters, about one sun
Experimental: as §1, §2, §3

[4] = UV spectrophotometer lambda max in diethylene glycol dimethyl ether solution; details: for lambda max compared with compound samples A, B and D (in words): Table 1 values vs. samples A, B and D of Table 2; for LAMBDA MAX: in diethylene glycol dimethyl ether, approximately 0.5 milligrams per milliliter
Experimental: The principal products of Examples 1, 2 and 3 were dissolved in diethylene glycol dimethyl ether. The concentrations of the resulting solutions were approximately 0.5 milligrams per milliliter. Each solution was tested in a UV spectrophotometer to determine its lambda max. The lambda max reported in Table 1 is the wavelength in the ultraviolet range closest to the visible spectrum or in the threshold range, i.e., 390 to 410 nanometers, of the visible spectrum, at which the maximum absorption and activation of the photochromic compound occurs in diethylene glycol dimethyl ether.

[5] = Colour change of diethylene glycol dimethyl ether solution on ultraviolet irradiation

Molecule: CCCN1c2cc(C)c(C)cc2C(C)(C)C12C=Nc1c(ccc3ncccc13)O2 (centres unmarked) [B, 1propyl-3,3,5,6-tetramethyl-spiro[indoline2,3[3H]pyrido[3,2f][1,4]benzoxaine]]
- BLEACH RATE T 1/2 [1]: 1.15 min
- LAMBDA MAX [2]: 350
- Δ OD @ SATURATION [3]: 0.36 Δ OD
- Δ OD/min. SENSITIVITY [3]: 0.44 Δ OD/min.

Molecule: 1,3,3,4,5(or 1,3,3,5,6,)-pentamethyl-9'-methoxy-carbonyl-8'-acetoxy-spiro[indoline-2,3'-[3H]naphth[2,1-b][1,4]oxazine] [Example 3]
- lambda max compared with compound samples A, B and D (in words) [4]: relatively high lambda max values
- LAMBDA MAX [4]: 374
- colour of solution after the ultraviolet light was removed [5]: returned to its original colorless condition
- colour of solution before irradiation [5]: colorless
- colour of solution when irradiated with ultraviolet light [5]: changed to blue

Molecule: 1propyl-3,3,4,5(or 3,3,5,6)tetramethyl-spiro[indoline2,3[3H]naphth[2,1b][1,4]oxazine]
- BLEACH RATE T 1/2 [1]: 0.783 min
- LAMBDA MAX [2]: 346
- Δ OD @ SATURATION [3]: 0.11 Δ OD
- Δ OD/min. SENSITIVITY [3]: 0.21 Δ OD/min.

Molecule: 1,3,3,4,5(or 1,3,3,5,6,)-pentamethyl-9'-methoxycarbonyl-8'-hydroxy-spiro[indoline-2,3'-[3H]naphth[2,1-b][1,41oxazine] [Example 1]
- lambda max compared with compound samples A, B and D (in words) [4]: relatively high lambda max values
- LAMBDA MAX [4]: 403
- colour of solution after the ultraviolet light was removed [5]: returned to its original slightly colored condition
- colour of solution before irradiation [5]: slight yellow cast
- colour of solution when irradiated with ultraviolet light [5]: changed to green

Molecule: CCCN1c2cc(C)c(C)cc2C(C)(C)C12C=Nc1c(ccc3ccc(OC)cc13)O2 (centres unmarked) [A, 1propyl-3,3,5,6-tetramethyl-9methoxy-spiro[indoline2,3[3H]naphth[2,1b][1,]oxazine]]
- BLEACH RATE T 1/2 [1]: 1.17 min
- LAMBDA MAX [2]: 336
- Δ OD @ SATURATION [3]: 0.11 Δ OD
- Δ OD/min. SENSITIVITY [3]: 0.15 Δ OD/min.

Molecule: 1-propyl-3,3,4,5(or 3,3,5,6)-tetramethyl-9'-methoxycarbonyl-8'-acetoxy-spiro[indoline-2,3'-[3H]naphth[2,1-b][1,4]oxazine] [Compound C]
- BLEACH RATE T 1/2 [1]: 2.27 min
- bleach rate (in words) ([1]; polymer test squares): acceptable bleach rate
- LAMBDA MAX [2]: 374
- absorption maxima in the UV spectrum compared with compounds A, B and D (in words) ([2]; polymer test squares): unexpectedly higher than compounds A, B and D
- Δ OD @ SATURATION [3]: 0.42 Δ OD
- Δ OD/min. SENSITIVITY [3]: 0.46 Δ OD/min.
- optical density at saturation compared with the other compounds (in words) ([3]; polymer test squares): higher optical density at saturation
- sensitivity compared with the other compounds (in words) ([3]; polymer test squares): improved sensitivity

Molecule: 1,3,3,4,5(or 1,3,3,5,6,)-pentamethyl-9'-methoxycarbonyl-8'-methoxy-spiro[indoline-2,3'-[3H]naphth[2,1-b][1,41oxazine] [Example 2]
- lambda max compared with compound samples A, B and D (in words) [4]: relatively high lambda max values
- LAMBDA MAX [4]: 383
- colour of solution after the ultraviolet light was removed [5]: returned to its original colorless condition
- colour of solution before irradiation [5]: colorless
- colour of solution when irradiated with ultraviolet light [5]: changed to blue
